Measurements as given in PubChem BioAssay (NCI).
“And” between values parts separate entries of the source, which are not always exact repeats. Equal entries are not always repeated.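 Results reflect a 48-hour exposure of cells in 96-well plates to compound at five concentrations. The concentration for 50% growth inhibition is given as GI50. TGI: total growth inhibition.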

Columns and labels:
Experiment in all cases: NCI anticancer screen, dose series, 48 h
[1] = system: SK-MEL-5 melanoma
[2] = system: HCC-2998 colon
[3] = system: NCI-H522 lung
[4] = system: HT29 colon
[5] = system: UACC-257 melanoma
[6] = system: SR leukemia
[7] = system: SN12C renal
[8] = system: HL-60(TB) leukemia

Q: `O=C(N/N=C/c1ccc(Cl)cc1)c1ccc(NC(=O)c2ccccn2)cc1` was tested. Which GI50 [1] did it give?
A: Its GI50 is 8760 nM.

Q: And the TGI [1]?
A: The TGI was 41.8 µM.

Q: What about the GI50 [2] of the same molecule?
A: Its GI50 is over 100000 nM.

Q: What about the TGI [2] of the same molecule?
A: The TGI was over 100 µM.

Q: And the GI50 [3]?
A: The GI50 was 31500 nM.

Q: And the TGI [3]?
A: Its TGI is over 100 µM.

Q: And the GI50 [4]?
A: The GI50 was over 100000 nM.

Q: And the TGI [4]?
A: Its TGI is over 100 µM.

Q: What about the GI50 [5] of the same molecule?
A: Its GI50 is over 100 µM.

Q: And the TGI [5]?
A: Its TGI is over 100 µM.

Q: And the GI50 [6]?
A: Its GI50 is 70800 nM.

Q: And the TGI [6]?
A: The TGI was over 100 µM.

Q: What about the GI50 [7] of the same molecule?
A: Its GI50 is 18900 nM.

Q: What about the TGI [7] of the same molecule?
A: Its TGI is 55.4 µM.

Q: Which TGI [1] does the source give for `Cn1cc(C2NC(=O)c3ccccc3N2)c2ccccc21` (centres undefined) here?
A: The TGI was 5.64 µM.

Q: What about the TGI [2] of the same molecule?
A: Its TGI is 7.45 µM.

Q: And the TGI [3]?
A: Its TGI is 2.56 µM.

Q: And the TGI [4]?
A: The TGI was 0.86 µM.

Q: And the TGI [5]?
A: Its TGI is over 100 µM.

Q: What about the TGI [8] of the same molecule?
A: Its TGI is 485 nM.

Q: What about the TGI [7] of the same molecule?
A: Its TGI is over 100 µM.

Q: Which results are given for `COc1ccc(C2=NN(C(N)=S)C(c3ccc4c(c3)OCO4)C2)cc1` (centres undefined)?
A: GI50 [1]: 2470 nM; TGI [1]: 8.41 µM; GI50 [2]: 2300 nM; TGI [2]: 5.85 µM; GI50 [3]: 2400 nM; TGI [3]: 16.8 µM; GI50 [4]: 3130 nM; TGI [4]: > 100 µM; GI50 [5]: 3.96 µM; TGI [5]: 68.5 µM; GI50 [6]: 3080 nM; TGI [6]: 11.8 µM; GI50 [7]: 3370 nM; TGI [7]: > 100 µM

Q: What does the source list for `O=C(NCc1cn(Cc2cccc(Oc3ccccc3)c2)nn1)c1cccnc1Nc1ccc(F)cc1`?
A: GI50 [1]: 4480 nM; TGI [1]: 38.8 µM; GI50 [2]: > 100000 nM; TGI [2]: > 100 µM; GI50 [3]: 10800 nM; TGI [3]: > 100 µM; GI50 [4]: 5600 nM; TGI [4]: > 100 µM; GI50 [5]: 6.87 µM; TGI [5]: > 100 µM; GI50 [8]: > 100000 nM; TGI [8]: > 100000 nM; GI50 [7]: 52600 nM; TGI [7]: > 100 µM

Q: For `O=c1c2ccccc2nc(-c2cccc([N+](=O)[O-])c2)n1O`, which TGI [1] is on record?
A: The TGI was over 100 µM.

Q: And the TGI [2]?
A: The TGI was over 100 µM.

Q: And the TGI [3]?
A: The TGI was over 88.8 µM.

Q: And the TGI [4]?
A: Its TGI is over 100 µM.

Q: And the TGI [5]?
A: Its TGI is over 100 µM.

Q: What about the TGI [6] of the same molecule?
A: The TGI was over 100 µM.

Q: What about the TGI [7] of the same molecule?
A: Its TGI is over 100 µM.

Q: `CN1CCN(Cc2ccc(NC(=O)c3cncc(C#Cc4cnc(N)c5ncccc45)c3)cc2C(F)(F)F)CC1` was tested. Which GI50 [1] did it give?
A: Its GI50 is 432 nM.

Q: What about the TGI [1] of the same molecule?
A: The TGI was 1.59 µM.

Q: What about the GI50 [2] of the same molecule?
A: The GI50 was 539 nM.

Q: And the TGI [2]?
A: Its TGI is 16.7 µM.

Q: And the GI50 [3]?
A: Its GI50 is 396 nM.

Q: What about the TGI [3] of the same molecule?
A: The TGI was 8.49 µM.

Q: And the GI50 [4]?
A: Its GI50 is 157 nM.

Q: And the TGI [4]?
A: Its TGI is 1.48 µM.

Q: And the GI50 [5]?
A: The GI50 was 0.639 µM.

Q: And the TGI [5]?
A: The TGI was 5.6 µM.

Q: What about the GI50 [8] of the same molecule?
A: Its GI50 is 76.8 nM.

Q: What about the TGI [8] of the same molecule?
A: The TGI was 602 nM.

Q: And the GI50 [7]?
A: Its GI50 is 307 nM.

Q: And the TGI [7]?
A: The TGI was 1.5 µM.

Q: With `COc1ccc(-c2csc3c2-n2cccc2C3=O)cc1` as the molecule, how does the GI50 [1] read?
A: The GI50 was 23.6 nM.

Q: What about the GI50 [2] of the same molecule?
A: Its GI50 is 232 nM.

Q: And the TGI [2]?
A: The TGI was 2.56 µM and 5.8 µM.

Q: And the GI50 [3]?
A: Its GI50 is 2.34 nM and 21.8 nM.

Q: What about the TGI [3] of the same molecule?
A: The TGI was 0.00998 µM and 0.0802 µM.

Q: What about the GI50 [4] of the same molecule?
A: Its GI50 is 5.71 nM.

Q: What about the GI50 [6] of the same molecule?
A: The GI50 was 3.14 nM.

Q: And the GI50 [8]?
A: The GI50 was 4.16 nM.

Q: What about the TGI [8] of the same molecule?
A: The TGI was 18.5 nM and 98.4 nM.

Q: And the GI50 [7]?
A: Its GI50 is 68.1 nM.

Q: What about the TGI [7] of the same molecule?
A: The TGI was over 100 µM.

Q: Which results are given for `COc1cc2c(c3oc(-c4ccc(O)cc4)c(O)c(=O)c13)CCC(C)(C)O2`?
A: GI50 [1]: 90.8 nM; TGI [1]: 0.241 µM; GI50 [2]: 254 nM; TGI [2]: 0.672 µM; GI50 [3]: 77.6 nM; TGI [3]: 0.232 µM; GI50 [4]: 3120 nM; TGI [4]: 10.9 µM; GI50 [5]: 0.291 µM; TGI [5]: 0.778 µM; GI50 [6]: 77.3 nM; GI50 [7]: 271 nM; TGI [7]: 0.884 µM

Q: What does the source list for `CC(C)=CCC/C(C)=C/CC/C(C)=C/CSC[C@H](NC(=O)CCCCCN1CCN(C)CC1)C(=O)NC1CCCCCC1`?
A: GI50 [1]: 1770 nM; TGI [1]: 3.18 µM; GI50 [2]: 1840 nM; TGI [2]: 3.61 µM; GI50 [4]: 2190 nM; TGI [4]: 4.74 µM; GI50 [5]: 1.85 µM; TGI [5]: 3.63 µM; GI50 [6]: 1980 nM; TGI [6]: 5.35 µM; GI50 [8]: 1980 nM; TGI [8]: 4140 nM; GI50 [7]: 2050 nM; TGI [7]: 4.51 µM

Q: What does the source list for `CC(=O)/C(=C\c1ccc(Cl)cc1)c1ccccc1`?
A: GI50 [1]: 81.8 nM; TGI [1]: 1.14 µM; GI50 [2]: 328 nM; TGI [2]: > 68.9 µM; GI50 [3]: 74.5 nM; TGI [3]: 3.26 µM; GI50 [4]: 140 nM; TGI [4]: > 61.7 µM; GI50 [6]: 41.5 nM; TGI [6]: > 49.7 µM; GI50 [8]: 30.7 nM; TGI [8]: 117 nM; GI50 [7]: 541 nM; TGI [7]: > 100 µM

Q: Which results are given for `Cn1ncnc1[C@@H]1c2n[nH]c(=O)c3cc(F)cc(c23)N[C@H]1c1ccc(F)cc1`?
A: GI50 [1]: > 100000 nM; TGI [1]: > 100 µM; GI50 [2]: > 100000 nM; TGI [2]: > 100 µM; GI50 [3]: > 100000 nM; TGI [3]: > 100 µM; GI50 [4]: > 100000 nM; TGI [4]: > 100 µM; GI50 [6]: 33200 nM; TGI [6]: > 100 µM; GI50 [8]: > 100000 nM; TGI [8]: > 100000 nM; GI50 [7]: > 100000 nM; TGI [7]: > 100 µM

Q: Which GI50 [1] does the source give for `O=S(=O)(NCCCNc1cc(-c2cn(-c3ccccc3)nc2-c2cccc(O)c2)ccn1)c1ccc(C(F)(F)F)cc1` here?
A: Its GI50 is 1560 nM.

Q: And the TGI [1]?
A: The TGI was 2.97 µM.

Q: What about the GI50 [2] of the same molecule?
A: The GI50 was 1920 nM.

Q: What about the TGI [2] of the same molecule?
A: The TGI was 3.53 µM.

Q: What about the GI50 [3] of the same molecule?
A: The GI50 was 2280 nM.

Q: What about the TGI [3] of the same molecule?
A: Its TGI is 4.83 µM.

Q: What about the GI50 [4] of the same molecule?
A: Its GI50 is 1230 nM.

Q: And the TGI [4]?
A: Its TGI is 3.18 µM.

Q: And the GI50 [6]?
A: Its GI50 is 1780 nM.

Q: And the TGI [6]?
A: The TGI was 5.83 µM.

Q: And the GI50 [8]?
A: The GI50 was 2520 nM.

Q: What about the TGI [8] of the same molecule?
A: The TGI was 6200 nM.

Q: What about the GI50 [7] of the same molecule?
A: Its GI50 is 1810 nM.

Q: And the TGI [7]?
A: The TGI was 3.67 µM.

Q: Which GI50 [1] does the source give for `O=c1nc2n(-c3cccc(Cl)c3)c3ccc([N+](=O)[O-])cc3cc-2c(=O)[nH]1` here?
A: Its GI50 is 5360 nM.

Q: What about the TGI [1] of the same molecule?
A: Its TGI is 12.8 µM.

Q: And the GI50 [2]?
A: Its GI50 is 4920 nM.

Q: And the TGI [2]?
A: The TGI was 11 µM.

Q: What about the GI50 [3] of the same molecule?
A: The GI50 was 7370 nM.

Q: And the TGI [3]?
A: Its TGI is 21.6 µM.

Q: And the GI50 [4]?
A: Its GI50 is 9060 nM.

Q: And the TGI [4]?
A: Its TGI is over 25 µM.

Q: And the GI50 [5]?
A: Its GI50 is 9.78 µM.

Q: What about the TGI [5] of the same molecule?
A: Its TGI is over 25 µM.

Q: And the GI50 [8]?
A: Its GI50 is 1290 nM.

Q: What about the TGI [8] of the same molecule?
A: The TGI was over 25000 nM.

Q: What about the GI50 [7] of the same molecule?
A: Its GI50 is 4550 nM.

Q: What about the TGI [7] of the same molecule?
A: The TGI was 10.6 µM.
